In patent US12338256B2, “Aza-tetracyclic oxazepine compounds and uses thereof” (Genentech, Inc., priority 2022, dated 2025):
Read-outs that look alike come from different tables or passages of the source.

Experiments:
[1] = tested on: AsPC-1 (homozygous mutant KRAS G12D human pancreatic cell line); experiment: KRAS 3D-Cell Proliferation Assay, AsPC-1 (Example 503); format: cell-based; settings: Homo sapiens, ASPC1, 168 h, AsPC-1 3D culture, 7 days, CellTiter-Glo 3D; read-out: Prolif AsPC-1 3D ATP IC50
Outline: (§1)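 IC50s come from a 4-parameter Hill fit of luminescence (CellTiter-Glo 3D) normalized between DMSO (0%) and 1 μM staurosporine (100%). Cells in low-attachment 3D culture, RPMI-1640 with 10% FBS, received serial compound dilutions (0.3% DMSO) after overnight and were incubated 7 days at 37 °C.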

KRAS G12D = KRAS G12D (Homo sapiens, UniProt P01116, G12D); experiment: KRAS G12D LoEnz Biochemical Assay, BODIPY-GDP Exchange TR-FRET (Example 500); settings: read-out: KRas (G12D) GDP HTRF IC50
Chain of KRAS G12D (P01116 1-188 isoform P01116-2 G12D): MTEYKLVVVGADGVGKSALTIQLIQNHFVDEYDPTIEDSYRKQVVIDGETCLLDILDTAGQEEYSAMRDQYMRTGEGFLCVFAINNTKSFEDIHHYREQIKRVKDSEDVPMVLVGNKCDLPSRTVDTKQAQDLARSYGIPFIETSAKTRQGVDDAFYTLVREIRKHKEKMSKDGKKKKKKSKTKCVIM
Method: Example 500: KRAS G12D LoEnz Biochemical Assay, BODIPY-GDP Exchange TR-FRET. Biochemical compound potencies are assessed by evaluating inhibition of SOS1-mediated nucleotide exchange in KRAS G12D. In this assay, the SOS1-promoted exchange of fluorescently-labeled GDP (BOPIDY-GDP) is monitored by time-resolved fluorescence resonance energy transfer (TR-FRET). Compounds solubilized in DMSO are dispensed as concentration series into 384-well white assay plates. A preformed complex of biotin-tagged recombinant human KRAS (0.06 nM mutant G12D) and 0.06 nM terbium-labeled streptavidin (CisBIO) prepared in 10 uL/well assay buffer (20 mM HEPES, pH 7.5, 50 mM NaCl, 10 mM MgCl2, 0.01% Tween-20 and 1 mM dithiothreitol) is added and allowed to incubate for 10-minutes at room temperature. The reaction is initiated with the addition of 5 uL 300 nM recombinant human SOS1 and 300 nM BODIPY-GDP in assay buffer. After a 120-minute incubation, the fluorescence is measured with excitation at 337 nm and emission at 490 and 520 nm. The TR-FRET ratio is determined as the fluorescence at 520 nm divided by the fluorescence at 490 nm multiplied by 10,000. The results are normalized to percent inhibition based on control samples: DMSO (0% inhibition) and control compound at a concentration that inhibits completely (100% inhibition). The normalized TR-FRET results are plotted against compound concentration, and the data are fit to a 4-parameter Hill equation to determine the IC50 values.

[2] = tested on: HPAC (homozygous mutant KRAS G12D human pancreatic cell line); experiment: KRAS 3D-Cell Proliferation Assay, HPAC (Example 503); format: cell-based; settings: Homo sapiens, HPAC, 168 h, HPAC 3D culture, 7 days, CellTiter-Glo 3D; read-out: Prolif HPAC 3D ATP IC50
Outline: as §1

[3] = tested on: H1975 (KRAS wild type human lung adenocarcinoma cell line); experiment: KRAS 3D-Cell Proliferation Assay, H1975 (Example 503); format: cell-based; settings: Homo sapiens, NCI-H1975, 168 h, H1975 3D culture, 7 days, CellTiter-Glo 3D; read-out: Prolif H1975 3D ATP IC50
Outline: as §1

KRAS WT = KRAS WT (Homo sapiens, UniProt P01116); experiment: KRAS WI Biochemical Assay, BODIPY-GDP Exchange TR-FRET (Example 501; 3 nM KRAS WT, 3 nM SOS1, 60-minute incubation)
Chain of KRAS WT (P01116 1-188 isoform P01116-2): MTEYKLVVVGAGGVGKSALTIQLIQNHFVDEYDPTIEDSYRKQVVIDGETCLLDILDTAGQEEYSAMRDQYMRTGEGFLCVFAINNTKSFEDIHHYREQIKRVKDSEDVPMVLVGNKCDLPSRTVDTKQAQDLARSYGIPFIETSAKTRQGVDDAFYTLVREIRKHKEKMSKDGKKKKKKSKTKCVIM
Method: Example 501: KRAS WI Biochemical Assay, BODIPY-GDP Exchange TR-FRET. Biochemical compound potencies are assessed by evaluating inhibition of SOS1-mediated nucleotide exchange in KRAS WT. In this assay, the SOS1-promoted exchange of fluorescently-labeled GDP (BOPIDY-GDP) is monitored by time-resolved fluorescence resonance energy transfer (TR-FRET). Compounds solubilized in DMSO are dispensed as concentration series into 384-well white assay plates, and 5 uL assay buffer (20 mM HEPES, pH 7.5, 50 mM NaCl, 10 mM MgCl2, 0.01% Tween-20 and 1 mM dithiothreitol) is added just prior to the start of the assay. A preformed complex of 3 nM biotin-tagged recombinant human KRAS WT and 0.3 nM terbium-labeled streptavidin (CisBIO) prepared in 5 uL/well assay buffer is added and allowed to incubate for 10-minutes at room temperature. The reaction is initiated with the addition of 5 uL 3 nM recombinant human SOS1 and 300 nM BODIPY-GDP in assay buffer. After a 60-minute incubation, the fluorescence is measured with excitation at 337 nm and emission at 490 and 520 nm. The TR-FRET ratio is determined as the fluorescence at 520 nm divided by the fluorescence at 490 nm multiplied by 10,000. The results are normalized to percent inhibition based on control samples: DMSO (0% inhibition) and control compound at a concentration that inhibits completely (100% inhibition). The normalized TR-FRET results are plotted against compound concentration, and the data are fit to a 4-parameter Hill equation to determine the IC50 values.

[4] = tested on: PC-9 (KRAS wild type human lung adenocarcinoma cell line); experiment: KRAS 3D-Cell Proliferation Assay, PC-9 (Example 503); format: cell-based; settings: 168 h, PC-9 3D culture, 7 days, CellTiter-Glo 3D, read-out: Prolif PC9 3D ATP IC50
Outline: as §1

[5] = SOS1-mediated BODIPY-GDP exchange TR-FRET
[6] = SOS1-mediated BODIPY-GDP exchange TR-FRET, read-out: KRas HTRF IC50
[7] = SOS1-mediated BODIPY-GDP exchange, read-out: KRas(wt) GDP HTRF IC50

| Structure (SMILES) | IC50 [1] [nM] | IC50 (KRAS G12D; [5]) [nM] | IC50 [2] [nM] | IC50 [3] [nM] | IC50 (KRAS WT; [6]) [nM] | IC50 (KRAS WT; [7]) [nM] | IC50 (KRAS G12D; BODIPY-GDP exchange) [nM] | IC50 [4] [µM] |
| --- | --- | --- | --- | --- | --- | --- | --- | --- |
| Cc1cc(N)c(Cl)c(-c2nc3c4c(nc(OC[C@@]56CCCN5C[C@H](F)C6)nc4c2Cl)N2C[C@H]4CC[C@H](N4)[C@H]2[C@H](C)O3)c1C(F)(F)F (single isomer, unassigned) [240 (atrop. 2)] | 1.5 | 0.14 | – | – | – | – | – | – |
| Cc1cc(N)c(Cl)c(-c2nc3c4c(nc(OC[C@@]56CCCN5C[C@H](F)C6)nc4c2F)N2C[C@H]4CC[C@H](N4)[C@H]2[C@H](C)O3)c1C(F)(F)F (single isomer, unassigned) [Compound 199] | 4.06 | 0.17 | 0.98 | 1050 | 9.63 | – | – | – |
| Fc1c(-c2cccc3cccc(Cl)c23)nc2c3c(ncnc13)N1C[C@H]3CC[C@H](N3)[C@H]1CO2 [Compound 53, (5aS,6S,9R)-2-(8-Chloronaphthalen-1-yl)-1-fluoro-5a,6,7,8,9,10-hexahydro-5H-4-oxa-3,10a,11,13,14-pentaaza-6,9-methanonaphtho[1,8-ab]heptalene] | – | – | – | – | – | ≥ 200000 | – | – |
| Cc1nc(N)cc(-c2nc3c4c(nc(OCC5(CN6CC7COCC(C6)C7(F)F)CC5)nc4c2F)N2C[C@H]4CC[C@H](N4)[C@H]2[C@H](C)O3)c1C(F)(F)F [Compound 266, 4-((5S,5aS,6S,9R)-12-((1-((9,9-difluoro-3-oxa-7-azabicyclo[3.3.1]nonan-7-yl)methyl)cyclopropyl)methoxy)-1-fluoro-5-methyl-5a,6,7,8,9,10-hexahydro-5H-4-oxa-3,10a,11,13,14-pentaaza-6,9-methanonaphtho[1,8-ab]heptalene-2-yl)-6-methyl-5-(trifluoromethyl)pyridin-2-amine] | – | 3.05 | – | – | – | – | – | – |
| Cc1cc(N)c(Cl)c(-c2nc3c4c(nc(OC[C@@]56CCCN5C[C@H](F)C6)nc4c2Cl)N2C[C@H]4CC[C@H](N4)[C@H]2[C@H](C)O3)c1C(F)(F)F (single isomer, unassigned) [240 (atrop. 1)] | – | 44.9 | – | – | – | – | – | – |
| Cc1c(F)c(N)cc(-c2nc3c4c(nc(OC[C@@]56CCCN5C[C@H](F)C6)nc4c2F)N2C[C@H]4CC[C@H](N4)[C@H]2[C@@H](C(F)(F)F)O3)c1C(F)(F)F [Compound 246, 2-Fluoro-5-((5S,5aS,6S,9R)-1-fluoro-12-(((2R,7aS)-2-fluorotetrahydro-1H-pyrrolizin-7a(5H)-yl)methoxy)-5-(trifluoromethyl)-5a,6,7,8,9,10-hexahydro-5H-4-oxa-3,10a,11,13,14-pentaaza-6,9-methanonaphtho[1,8-ab]heptalene-2-yl)-3-methyl-4-(trifluoromethyl)aniline] | – | 311 | 2000 | 20000 | – | – | – | – |
| C#Cc1cccc2cc(O)cc(-c3nc4c5c(nc(OC[C@]67CCN6CC(F)(F)C7)nc5c3F)N3C[C@H]5CC[C@H](N5)[C@H]3[C@H](C)O4)c12 (single isomer, unassigned) [Compound 19] | 5.05 | – | 3.31 | 217 | – | – | 0.08 | 8.8 |
| C[C@@H]1Oc2nc(-c3cc(N)nc4ccccc34)c(F)c3nc(OC[C@]45CCN4CC(F)(F)C5)nc(c23)N2C[C@H]3CC[C@H](N3)[C@@H]12 [Compound 79, 4-((5S,5aS,6S,9R)-12-(((R)-3,3-Difluoro-1-azabicyclo[3.2.0]heptan-5-yl)methoxy)-1-fluoro-5-methyl-5a,6,7,8,9,10-hexahydro-5H-4-oxa-3,10a,11,13,14-pentaaza-6,9-methanonaphtho[1,8-ab]heptalen-2-yl)quinolin-2-amine] | 4040 | – | – | – | – | – | 22.7 | ≥ 20 |
| Cc1nc(N)c(F)c(-c2nc3c4c(nc(OC[C@@]56CCCN5CC5(CC5(F)F)C6)nc4c2F)N2C[C@H]4CC[C@H](N4)[C@H]2[C@H](C)O3)c1C(F)(F)F (stereo partly drawn) [Compound 221, 4-((5S,5aS,6S,9R)-12-(((7a′S)-2,2-Difluorodihydro-1′H,3′H-spiro[cyclopropane-1,2′-pyrrolizin]-7a′(5′H)-yl)methoxy)-1-fluoro-5-methyl-5a,6,7,8,9,10-hexahydro-5H-4-oxa-3,10a,11,13,14-pentaaza[6,9]methanonaphtho[1,8-ab]heptalene-2-yl)-3-fluoro-6-methyl-5-(trifluoromethyl)pyridin-2-amine] | 1.2 | 0.39 | 1.45 | 498 | 9.95 | – | – | – |
| Cc1c(Cl)c(N)cc(-c2nc3c4c(nc(OC[C@@]56CCCN5C[C@H](F)C6)nc4c2F)N2C[C@H]4CC[C@H](N4)[C@H]2[C@H](C)O3)c1C(F)(F)F (single isomer, unassigned) [Compound 200] | – | 0.1 | 6.83 | 593 | 6.7 | – | – | – |
| Nc1nc2c(-c3nc4c5c(ncnc5c3F)N3C[C@H]5CC[C@H](N5)[C@H]3CO4)ccc(F)c2s1 [Compound 55, 7-fluoro-4-((5aS,6S,9R)-1-fluoro-5a,6,7,8,9,10-hexahydro-5H-4-oxa-3,10a,11,13,14-pentaaza-6,9-methanonaphtho[1,8-ab]heptalen-2-yl)benzo[d]thiazol-2-amine] | ≥ 20000 | – | – | – | – | ≥ 200000 | – | 12.8 |
| C[C@@H]1Oc2nc(-c3cc(O)cc4cccc(F)c34)c(F)c3nc(OC[C@@]45CCCN4C[C@H](F)C5)nc(c23)N2C[C@H]3CC[C@H](N3)[C@@H]12 [Compound 9, 5-fluoro-4-((5S,5aS,6S,9R)-1-fluoro-12-(((2R,7aS)-2-fluorotetrahydro-1H-pyrrolizin-7a(5H)-yl)methoxy)-5-methyl-5a,6,7,8,9,10-hexahydro-5H-4-oxa-3,10a,11,13,14-pentaaza-6,9-methanonaphtho[1,8-ab]heptalen-2-yl)naphthalen-2-ol] | 19.3 | – | 11.6 | 2020 | – | 6.51 | 0.057 | 7.79 |
